Results from paper PMC12154426, “TPP-Based Nanovesicles Kill MDR Neuroblastoma Cells and Induce Moderate ROS Increase, While Exerting Low Toxicity Towards Primary Cell Cultures: An In Vitro Study” (International Journal of Molecular Sciences, 2025).
Read-outs that look alike come from different tables or passages of the source.

Tests used:
HTLA ER [1] = test: DAPI and Annexin-V/PI staining (necrosis/apoptosis), HTLA ER; format: cell-based, human; conditions: 24 h
Source text: Although it has been reported that diverse therapeutic approaches to counteract cancer, including chemotherapeutic drugs, gamma irradiation, suicide genes, or immunotherapy, are mediated through the induction of apoptosis, also necrosis, as well as other forms of cell death, that are not classified so far, may be triggered by anticancer therapies. Here, to evaluate if BPPB induced apoptosis or necrosis, both NB cell populations were labelled with Annexin-V-FITC/propidium iodide (PI) and analysed by confocal fluorescence microscopy, as reported in the literature. This is a standard procedure to monitor the progression of apoptosis and the possible presence of necrosis. […]
After the treatment, cells were washed with PBS and stained with the fluorescent DNA dye DAPI (1 µg/mL) for 30 min. After additional washing, the images were immediately acquired in the fluorescence mode using a Nikon AX R confocal microscope equipped with a PLAN APO 20× (Nikon Europe, B.V., Amstelveen, The Netherlands).
Apoptotic and necrotic cells were analysed, as described in Marengo et al.. […] After staining, the images were immediately acquired in fluorescence mode using a Nikon AX R confocal microscope equipped with a PLAN APO 20× (Nikon Europe, B.V., Amstelveen, The Netherlands).

HTLA ER [2] = test: MTS cell viability assay on HTLA ER NB cells; format: cell-based, human; conditions: for HTLA ER more tolerant to BPPB than HTLA 230: from IC50
Protocol: In this section, the strong anticancer effect of BPPB against ETO-sensitive HTLA 230 and multidrug-resistant (MDR) HTLA ER neuroblastoma (NB) cells previously reported was confirmed. Cell viability in HTLA 230 and HTLA ER cells exposed to increasing concentrations of BPPB for 24, 48, and 72 h was assessed by using the MTS essay, which is an efficient, eco- and user-friendly tool, commonly used to investigate the behaviour of cancer cells when exposed to specific treatments and how these treatments influence their growth and viability.
Following this, µM concentrations (x) were transformed in Log10 (x) (Figure 1e (HTLA 230) and Figure 1f (HTLA ER), traces with indicators and error bar). The nonlinear regression models of the Log10 (BPPB concentrations) vs. the normalized response (Hill Slope) shown in Figure 1e (HTLA 230) and Figure 1f (HTLA ER), traces without indicators, elaborated by GraphPad Prism software version 8.0.1 (GraphPad Software, Boston, MA, USA), gave us the IC50 values of BPPB for both cell populations at 24, 48, and 72 h of treatment.
HTLA 230 is a MYCN-amplified human stage-IV NB cell line, obtained from the G. Gaslini Institute, Genoa, Italy. The cytogenetic features of the HTLA 230 cell line include […] MYCN amplification, del(11)t(11;Y), balanced translocation t(1;17)(p36;q21), and dup(11p), which were previously described by Pezzolo et al.. Cells were periodically tested for mycoplasma contamination (Mycoplasma Reagent Set, Aurogene s.p.a, Pavia, Italy). After thawing and eight passages in the culture, cell morphology and proliferation were analyzed. […] Both cell populations were cultured in RPMI 1640 (Euroclone SpA, Pavia, Italy) supplemented with 10% fetal bovine serum (FBS; Euroclone, Pavia, Italy), 2 mM glutamine (Euroclone, Pavia, Italy), 1% penicillin/streptomycin (Euroclone, Pavia, Italy), 1% sodium pyruvate (Sigma-Aldrich, Sant Louis, MO, USA), and 1% amino acid solution (Sigma).
To determine the cytotoxic effects of BPPB, in vitro time- and dose-dependent experiments were carried out, as recently described. Briefly, cells were treated for 24, 48, and 72 h, with increasing concentrations (0.1–2.0 µM) of the compound. […] Cell cultures were carefully monitored before and during the experiments to ensure optimal cell density.
Cell viability was determined by using the CellTiter 96® AQueous One Solution Cell Proliferation MTS Assay (Promega, Madison, WI, USA), as previously described. MTS is a colorimetric method commonly used for determining cell viability. The cell survival rate, expressed as the cell viability percentage (%), was evaluated based on the experimental outputs of treated cells vs. the untreated ones (CTRs), and was calculated as follows: cell viability (%) = (OD treated cells − OD blank)/(OD untreated cells − OD blank) × 100%. IC50 values were calculated by GraphPad Prism 8.0.1 Software (GraphPad Software v8.0, San Diego, CA, USA), as detailed in the Results and Discussion in Section 2.

c1ccc([P+](CCCCCCCCCCCC[P+](c2ccccc2)(c2ccccc2)c2ccccc2)(c2ccccc2)c2ccccc2)cc1 [BPPB, 1,1-(1,12-dodecanediyl)-bis-[1,1,1]-triphenyl phosphonium di-bromide]
apoptosis (Annexin V-FITC / PI labelling) (HTLA ER [1]; 1 µM): marked apoptosis
necrosis (DAPI labelling) (HTLA ER [1]; 1.0 µM): did not induce the necrosis
cell viability (HTLA ER [2]; 1.25 µM, 24 h): 42.5%
cell viability (HTLA ER [2]; 1.25 µM, 72 h): 39.8%
cell viability (HTLA ER [2]; 1.5 µM, 48 h): 39.4%
cell viability (HTLA ER [2]; 2 µM, 24 h): 26.5%
cell viability (HTLA ER [2]; 2 µM, 48 h): 33.1%
cell viability (HTLA ER [2]; 2 µM, 72 h): 25.8%
concentration causing significant reduction in viability of cells (HTLA ER [2]; 24 h): ≥ 0.75 µM
HTLA ER more tolerant to BPPB than HTLA 230 (HTLA ER [2]; 24 h): 1.3 times
IC50 (HTLA ER [2]; 24 h exposure, 0.1–2 µM, read-out: IC50 HTLA ER): 1.24 ± 0.061 µM
concentration causing significant reduction in viability of cells (HTLA ER [2]; 48 h): ≥ 0.75 µM
HTLA ER more tolerant to BPPB than HTLA 230 (HTLA ER [2]; 48 h): 2.9 times
IC50 (HTLA ER [2]; 48 h exposure, 0.1–2 µM, read-out: IC50 HTLA ER): 1.35 ± 0.052 µM
concentration causing significant reduction in viability of cells (HTLA ER [2]; 72 h): ≥ 1.00 µM
HTLA ER more tolerant to BPPB than HTLA 230 (HTLA ER [2]; 72 h): 3.1 times
IC50 (HTLA ER [2]; 72 h exposure, 0.1–2 µM, read-out: IC50 HTLA ER): 1.2 ± 0.0695 µM
IC50 lower than that determined with ETO (HTLA ER [2]; HTLA ER, 24 h, ETO value ref 16): 478 fold
IC50 (HTLA ER [2]; over 24, 48, 72 h exposure, read-out: IC50 on MDR HTLA ER): 1.2 to 1.35 µM
